The values that follow are results of earlier work, collected in patent US10456335B2, “Oral hygiene compositions and methods” (Carson Laboratories, I.P., Inc., priority 2008, dated 2019).

Molecules are shown by their SMILES.

The conditions of the data set: eight hour time weighted average.

For the compound `OO` [hydrogen peroxide], the “OSHA permissible exposure limit” value is given as 1 ppm.
